Measurements as given in patent US20100267561A1, “HERBICIDAL PYRIDAZINONE DERIVATIVES” (priority 2007, published 2010).

Tests used:
Format in all cases: in vivo
[1] = test system: umbrella sedge (Cyperus difformis); assay: Test B flooded paddy test plant response
How it was run: (§1)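 Compounds were added directly to paddy water over 2-leaf-stage plants in pots flooded 3 cm above soil, water depth maintained. Visual injury scored against controls after 13 to 15 days in greenhouse, 0 (none) to 100 (complete control); dash indicates no result.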

[2] = test system: ducksalad (Heteranthera limosa); assay: Test B flooded paddy test plant response
How it was run: as §1

[3] = test system: blackgrass (Alopecurus myosuroides); assay: Test C pre-/postemergence plant response; details: Preemergence
How it was run: (§2)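 Pre/post spray; solvent blend non-phytotoxic, with surfactant; post stage 1–4 leaves (2–18 cm); controlled environment 15–25 d; visual score 0–100 relative to controls, 100 = complete control.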

[4] = test system: Italian ryegrass (Lolium multiflorum); assay: Test C pre-/postemergence plant response; details: Preemergence
How it was run: as §2

[5] = test system: spring barley (Hordeum vulgare); assay: Test C pre-/postemergence plant response; details: Preemergence
How it was run: as §2

[6] = test system: wild mustard (Sinapis arvensis); assay: Test C pre-/postemergence plant response; details: Preemergence
How it was run: as §2

[7] = test system: spring wheat (Triticum aestivum); assay: Test C pre-/postemergence plant response; details: Preemergence
How it was run: as §2

[8] = test system: winter barley (Hordeum vulgare); assay: Test C pre-/postemergence plant response; details: Preemergence
How it was run: as §2

[9] = test system: pigweed (Amaranthus retroflexus); assay: Test C pre-/postemergence plant response; details: Preemergence
How it was run: as §2

[10] = test system: green foxtail (Setaria viridis); assay: Test C pre-/postemergence plant response; details: Preemergence
How it was run: as §2

[11] = test system: annual bluegrass (Poa annua); assay: Test C pre-/postemergence plant response; details: Preemergence
How it was run: as §2

[12] = test system: windgrass (Apera spica-venti); assay: Test C pre-/postemergence plant response; details: Preemergence
How it was run: as §2

[13] = test system: canarygrass (Phalaris minor); assay: Test C pre-/postemergence plant response; details: Preemergence
How it was run: as §2

[14] = test system: winter wheat (Triticum aestivum); assay: Test C pre-/postemergence plant response; details: Preemergence
How it was run: as §2

wild oat (Avena fatua) = assay: Test C pre-/postemergence plant response; details: Preemergence
How it was run: as §2

[15] = test system: downy bromegrass (Bromus tectorum); assay: Test C pre-/postemergence plant response; details: Preemergence
How it was run: as §2

[16] = Flood (flooded paddy test), 62 g ai/ha, scale 0 to 100, 0 no effect, 100 complete control
[17] = Flood (flooded paddy test), 125 g ai/ha, scale 0 to 100, 0 no effect, 100 complete control
[18] = Flood (flooded paddy test), 250 g ai/ha, scale 0 to 100, 0 no effect, 100 complete control
[19] = Flood, 31 g ai/ha, scale 0 to 100
[20] = 8 g ai/ha, scale 0 to 100 (0 no effect, 100 complete control)
[21] = 16 g ai/ha, scale 0 to 100 (0 no effect, 100 complete control)
[22] = 31 g ai/ha, scale 0 to 100 (0 no effect, 100 complete control)
[23] = 62 g ai/ha, scale 0 to 100, 0 no effect, 100 complete control

For `Cn1ncc(O)c(-c2nn(-c3ccc(Cl)cc3)cc2Cl)c1=O` [Compound 28], the “Plant response rating, Sedge, Umbrella” value [1, 16] was 0, the “Plant response rating, Sedge, Umbrella” value [1, 17] was 0 and the “Plant response rating, Sedge, Umbrella” value [1, 18] was 0. For the same compound, the “Plant response rating, Sedge, Umbrella” value [1, 19] was 0, the “Plant response rating, Ducksalad” value [2, 16] was 0 and the “Plant response rating, Ducksalad” value [2, 17] was 0. The “Plant response rating, Ducksalad” value [2, 18] was 0, the “Plant response rating, Ducksalad” value [2, 19] was 0 and the “Plant response rating, Blackgrass” value [3, 20] was 0. The “Plant response rating, Blackgrass” value [3, 21] was 5, the “Plant response rating, Blackgrass” value [3, 22] was 15 and the “Plant response rating, Blackgrass” value [3, 23] was 85. For the same compound, the “Plant response rating, Ryegrass, Italian” value [4, 20] was 0, the “Plant response rating, Ryegrass, Italian” value [4, 21] was 15 and the “Plant response rating, Ryegrass, Italian” value [4, 22] was 90. The “Plant response rating, Ryegrass, Italian” value [4, 23] was 95, the “Plant response rating, Barley, Spring” value [5, 20] was 0 and the “Plant response rating, Barley, Spring” value [5, 21] was 15. The “Plant response rating, Barley, Spring” value [5, 22] was 15, the “Plant response rating, Barley, Spring” value [5, 23] was 25 and the “Plant response rating, Mustard, Wild” value [6, 20] was 0. The “Plant response rating, Mustard, Wild” value [6, 21] was 0, the “Plant response rating, Mustard, Wild” value [6, 22] was 0 and the “Plant response rating, Mustard, Wild” value [6, 23] was 0. The “Plant response rating, Wheat, Spring” value [7, 20] was 0, the “Plant response rating, Wheat, Spring” value [7, 21] was 0 and the “Plant response rating, Wheat, Spring” value [7, 22] was 35. The “Plant response rating, Wheat, Spring” value [7, 23] was 50, the “Plant response rating, Barley, Winter” value [8, 20] was 0 and the “Plant response rating, Barley, Winter” value [8, 21] was 0. The “Plant response rating, Barley, Winter” value [8, 22] was 0, the “Plant response rating, Barley, Winter” value [8, 23] was 40 and the “Plant response rating, Pigweed” value [9, 20] was 0. For the same compound, the “Plant response rating, Pigweed” value [9, 21] was 0, the “Plant response rating, Pigweed” value [9, 22] was 0 and the “Plant response rating, Pigweed” value [9, 23] was 0. For the same compound, the “Plant response rating, Foxtail, Green” value [10, 20] was 0, the “Plant response rating, Foxtail, Green” value [10, 21] was 20 and the “Plant response rating, Foxtail, Green” value [10, 22] was 100. The “Plant response rating, Foxtail, Green” value [10, 23] was 100, the “Plant response rating, Bluegrass” value [11, 20] was 0 and the “Plant response rating, Bluegrass” value [11, 21] was 0. The “Plant response rating, Bluegrass” value [11, 23] was 50, the “Plant response rating, Windgrass” value [12, 20] was 20 and the “Plant response rating, Windgrass” value [12, 21] was 30. For the same compound, the “Plant response rating, Windgrass” value [12, 22] was 75, the “Plant response rating, Windgrass” value [12, 23] was 85 and the “Plant response rating, Canarygrass” value [13, 20] was 0. For the same compound, the “Plant response rating, Canarygrass” value [13, 21] was 0, the “Plant response rating, Canarygrass” value [13, 22] was 10 and the “Plant response rating, Canarygrass” value [13, 23] was 90. For the same compound, the “Plant response rating, Wheat, Winter” value [14, 20] was 0, the “Plant response rating, Wheat, Winter” value [14, 21] was 10 and the “Plant response rating, Wheat, Winter” value [14, 22] was 30. The “Plant response rating, Wheat, Winter” value [14, 23] was 60, the “Plant response rating, Oat, Wild” value (wild oat (Avena fatua); [20]) was 0 and the “Plant response rating, Oat, Wild” value (wild oat (Avena fatua); [21]) was 0. For the same compound, the “Plant response rating, Oat, Wild” value (wild oat (Avena fatua); [22]) was 20, the “Plant response rating, Oat, Wild” value (wild oat (Avena fatua); [23]) was 75 and the “Plant response rating, Bromegrass, Downy” value [15, 20] was 0. For the same compound, the “Plant response rating, Bromegrass, Downy” value [15, 21] was 0, the “Plant response rating, Bromegrass, Downy” value [15, 22] was 20 and the “Plant response rating, Bromegrass, Downy” value [15, 23] was 75.
